We go through four compounds from patent US20240343747A1, “Heteroaryl compounds as inhibitors of TYK2, composition and application thereof” (Accro Bioscience (HK) Limited, priority 2021, published 2024).

One series has as its target hERG channel (Homo sapiens (Human), UniProt Q12809). In words: cell-based. As for the experimental part: Chinese hamster ovary (CHO) cell line, CHO-hERG cells were used in this study. CHO-hERG cells were derived from Sophion Biosciences Inc. (Ballerup, Denmark) in Suzhou, China. The cell reserve fluid is frozen in liquid nitrogen tanks. Each batch of stored cell fluid is tested for mycoplasma contamination. The cells were no longer used after 30 generations.
The whole cell patch clamp technique was used to record hERG current at room temperature. The patch-clamp amplifier outputs signals through […] conversion and 2.9 KHz low-pass filtering. Data records were collected by Patchmaster Pro software.
Cells were planted in a cell recording tank and placed on an inverted microscope platform. One cell in the recording tank was randomly selected for experiment. The perfusion system was fixed on an inverted microscope platform and cells were continuously irrigated with ECS.
Manual patch clamp recording microelectrode was prepared with capillary glass tube, which was filled with intracellular fluid. On the day of the patch clamp test, the electrodes were prepared using a borosilicate glass tube (GC150TF-10, Harvard Apparatus Co. UK). The resistance is between 2-5 MΩ after the electrode is filled with ICS.
The clamping voltage was −80 mV, and the first step was depolarized to +60 mV for 850 ms to open the hERG channel. The voltage is then set to −50 mV and maintained for 1275 ms, resulting in a rebound current or tail current, the peak of which is measured and used for analysis. Finally, the voltage is restored to the clamping voltage (−80 mV). During the test, the command voltage program was repeated every 15 s.
At the beginning of recording the perfusion of the solvent control working solution, the test substance/positive control working solution to be tested can be poured after monitoring the tail current peak until more than 3 scanning curves are stable, until the inhibition of the test substance/positive control working solution to the hERG current peak reaches a stable state. Generally, the most recent three consecutive peak values of the current curve basically coincide as a criterion to judge whether the state is stable. After reaching a stable state, continue to pour one concentration of the test sample. One or more test subjects/positive controls, or multiple concentrations of the same drug, can be tested on a cell, and the different test subjects/positive controls need to be rinsed with a solvent control working fluid until the hERG current returns to more than 80% of its pre-drug level.
The concentration of positive control cisapride was 0.1 μM, and two cells were repeated.

In the next series the target is TYK2 JH2 (Homo sapiens (Human), UniProt P29597). In words: Competitive binding assay (kinase-tagged phage, qPCR), TYK2 JH2. How it is done:
For most assays, kinase-tagged T7 phage strains were prepared in an E. coli host derived from the BL21 strain. E. coli were grown to log-phase and infected with T7 phage and incubated with shaking at 32° C. until lysis. The lysates were centrifuged and filtered to remove cell debris. The remaining kinases were produced in HEK-293 cells and subsequently tagged with DNA for qPCR detection. Streptavidin coated magnetic beads were treated with biotinylated small molecule ligands for 30 minutes at room temperature to generate affinity resins for kinase assays. The liganded beads were blocked with excess biotin and washed with blocking buffer (SeaBlock (Pierce), 1% BSA, 0.05% Tween 20, 1 mM DTT) to remove unbound ligand and to reduce non-specific binding. […] Test compounds were prepared as 111X stocks in 100% DMSO. Dissociation constants (Kds) were determined using an 11-point 3-fold compound dilution series with three DMSO control points. All compounds for Kd measurements are distributed by acoustic transfer (non-contact dispensing) in 100% DMSO. The compounds were then diluted directly into the assays such that the final concentration of DMSO was 0.9%. All reactions performed in polypropylene 384-well plate. Each was a final volume of 0.02 ml. The assay plates were incubated at room temperature with shaking for 1 hour and the affinity beads were washed with wash buffer (1×PBS, 0.05% Tween 20). The beads were then re-suspended in elution buffer (1×PBS, 0.05% Tween 20, 0.5 μM nonbiotinylated affinity ligand) and incubated at room temperature with shaking for 30 minutes. The kinase concentration in the eluates was measured by qPCR.
An 11-point 3-fold serial dilution of each test compound was prepared in 100% DMSO at 100× final test concentration and subsequently diluted to 1× in the assay (final DMSO concentration=1%). Most Kds were determined using a compound top concentration=30,000 nM. If the initial Kd determined was <0.5 nM (the lowest concentration tested), the measurement was repeated with a serial dilution starting at a lower top concentration.
Binding constants (Kds) were calculated with a standard dose-response curve using the Hill equation: […]
The Hill Slope was set to −1.
Curves were fitted using a non-linear least square fit with the Levenberg-Marquardt algorithm.

Series [1] in a line: Plasma protein binding test, dog. It counts as in vitro ADME. How it is done: • 1. Test compound and control compound were dissolved in dimethyl sulfoxide (DMSO) to achieve 10 mM stock solutions. DMSO working solutions were prepared at 400 μM. To prepare the loading matrix, compound working solutions (5 μL) were added in a 1:200 ratio to blank matrix (995 μL), and mixed thoroughly. • 2. To prepare the time zero (TO) samples to be used for recovery determination, 50 μL aliquots of loading matrix were transferred in triplicate to the sample collection plate. The samples were immediately matched with opposite blank buffer to obtain a final volume of 100 μL of 1:1 matrix/dialysis buffer (v/v) in each well. 500 μL of stop solution were added to these TO samples. They were then stored at 2-8° C. pending further processes along with other post-dialysis samples. • 3. To load the dialysis device, an aliquot of 150 μL of the loading matrix was transferred to the donor side of each dialysis well in triplicate, and 150 μL of the dialysis buffer was loaded to the receiver side of the well. The dialysis plate was placed in a humidified incubator at 37° C. with 5% CO2 on a shaking platform that rotated slowly (about 100 rpm) for 4 hours • 4. At the end of the dialysis, aliquots of 50 μL of samples were taken from both the buffer side and the matrix side of the dialysis device. These samples were transferred into new 96-well plates. Each sample was mixed with an equal volume of opposite blank matrix (buffer or matrix) to reach a final volume of 100 μL of 1:1 matrix/dialysis buffer (v/v) in each well. All samples were further processed by adding 500 μL of stop solution containing internal standards. The mixture was vortexed and centrifuged at 4000 rpm for about 20 minutes. An aliquot of 100 μL of supernatant of all the samples was then removed for LC-MS/MS analysis • 5. The single blank samples were prepared by transferring […] of blank matrix to a 96 well plate and adding 50 μL of blank PBS buffer to each well. The blank plasma must match the species of plasma used in the plasma side of the well. […]
The % Unbound and % Bound were calculated using the following equations: […]

One may read the IC50 as the concentration at which inhibition is half-maximal. Read a low IC50 as greater potency in that assay. What is called Kd is the equilibrium constant for the complex coming apart. Higher therefore signals weaker binding. For orientation: fraction unbound means free concentration divided by total concentration. Higher therefore signals weak binding.

Chain of hERG channel (Q12809 whole entry): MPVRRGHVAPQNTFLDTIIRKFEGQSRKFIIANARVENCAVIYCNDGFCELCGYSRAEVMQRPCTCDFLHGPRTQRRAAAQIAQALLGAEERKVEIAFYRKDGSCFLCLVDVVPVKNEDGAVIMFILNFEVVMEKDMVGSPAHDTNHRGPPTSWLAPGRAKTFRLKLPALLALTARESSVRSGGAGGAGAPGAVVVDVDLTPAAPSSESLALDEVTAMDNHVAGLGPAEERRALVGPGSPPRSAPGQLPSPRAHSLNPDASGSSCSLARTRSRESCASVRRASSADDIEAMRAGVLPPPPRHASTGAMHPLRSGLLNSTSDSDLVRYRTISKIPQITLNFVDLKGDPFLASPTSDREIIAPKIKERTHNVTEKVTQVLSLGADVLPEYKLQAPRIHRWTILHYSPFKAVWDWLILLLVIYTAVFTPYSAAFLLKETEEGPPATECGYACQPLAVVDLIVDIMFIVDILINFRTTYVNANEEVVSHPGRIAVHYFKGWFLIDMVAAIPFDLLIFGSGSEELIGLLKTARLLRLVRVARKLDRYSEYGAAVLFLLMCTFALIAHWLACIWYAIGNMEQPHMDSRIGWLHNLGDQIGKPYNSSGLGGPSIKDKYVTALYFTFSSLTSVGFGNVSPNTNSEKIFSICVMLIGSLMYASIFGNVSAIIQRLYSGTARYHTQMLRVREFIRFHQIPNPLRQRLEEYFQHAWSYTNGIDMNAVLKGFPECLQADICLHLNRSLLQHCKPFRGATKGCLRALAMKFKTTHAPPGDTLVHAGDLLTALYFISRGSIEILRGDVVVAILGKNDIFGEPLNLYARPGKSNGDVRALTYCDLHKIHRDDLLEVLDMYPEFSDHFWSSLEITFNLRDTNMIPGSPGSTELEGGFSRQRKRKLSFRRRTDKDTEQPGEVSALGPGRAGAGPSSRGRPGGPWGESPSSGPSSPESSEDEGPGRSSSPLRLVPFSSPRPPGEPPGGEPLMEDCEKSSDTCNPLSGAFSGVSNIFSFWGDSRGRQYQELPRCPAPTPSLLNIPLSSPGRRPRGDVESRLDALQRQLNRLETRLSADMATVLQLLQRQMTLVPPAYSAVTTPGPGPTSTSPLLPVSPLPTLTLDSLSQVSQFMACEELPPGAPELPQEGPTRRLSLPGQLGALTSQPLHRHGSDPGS
Chain of TYK2 JH2 (P29597 589-875): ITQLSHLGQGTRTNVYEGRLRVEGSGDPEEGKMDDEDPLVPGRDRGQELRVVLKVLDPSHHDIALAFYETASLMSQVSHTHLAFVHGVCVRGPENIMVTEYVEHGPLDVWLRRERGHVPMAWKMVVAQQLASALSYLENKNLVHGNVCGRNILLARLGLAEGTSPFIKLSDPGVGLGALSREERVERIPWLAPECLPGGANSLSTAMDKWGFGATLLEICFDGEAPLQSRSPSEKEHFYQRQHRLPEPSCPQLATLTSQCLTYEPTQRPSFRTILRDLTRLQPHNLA

Turning to `[2H]C([2H])([2H])n1nc(-c2cccc(Nc3cc(NC(=O)C4CC4)ncc3C(=O)CC)c2OC)cc1P(C)(C)=O` [Compound B22], on hERG channel, the IC50 is more than 30000 nM and the “inhibition on hERG channel (in words)” value was “no inhibition”. Further, the dissociation constant (Kd) at TYK2 JH2 was determined as 0.063 nM. The same compound gave a fraction unbound at 4 h, 2 μM in series [1] of 0.156.
Take `CCC(=O)c1cnc(NC(=O)C2CC2)cc1Nc1cccc(-c2cc(P(=O)(C3CC3)C3CC3)n(C)n2)c1OC` [Compound B37, N-(4-((3-(5-(dicyclopropylphosphoryl)-1-methyl-1H-pyrazol-3-yl)-2-methoxyphenyl)amino)-5-propionylpyridin-2-yl)cyclopropanecarboxamide]: on hERG channel, the IC50 is more than 30000 nM and the “inhibition on hERG channel (in words)” value is “no inhibition”. At TYK2 JH2, the equilibrium dissociation constant (Kd) came out at 0.044 nM.
With `[2H]C([2H])([2H])NC(=O)c1nnc(NC(=O)C2CC2)cc1Nc1cccc(-c2cc(P(=O)(C3CC3)C3CC3)n(C)n2)c1OC` [Compound B41, 6-(cyclopropanecarboxamido)-4-((3-(5-(dicyclopropylphosphoryl)-1-methyl-1H-pyrazol-3-yl)-2-methoxyphenyl)amino)-N-(methyl-d3)pyridazine-3-carboxamide], at hERG channel, the IC50 is more than 30000 nM and the “inhibition on hERG channel (in words)” value is on record as “no inhibition”. This compound also gave a fraction unbound at 4 h, 2 μM in series [1] of 0.019.
Turning to `CCC(=O)c1cnc(NC(=O)C2CC2)cc1Nc1cccc(-c2cc(P(C)(C)=O)n(C)n2)c1OC` [Compound B2, N-(4-((3-(5-(dimethylphosphoryl)-1-methyl-1H-pyrazol-3-yl)-2-methoxyphenyl)amino)-5-propionylpyridin-2-yl)cyclopropanecarboxamide], on hERG channel, the IC50 is more than 30000 nM and the “inhibition on hERG channel (in words)” value is on record as “no inhibition”. The same compound returned a Kd at TYK2 JH2 of 0.043 nM. In series [1], this compound gave a fraction unbound at 4 h, 2 μM of 0.119.
